Patent publication US10058534B2, “Benzothiophene derivatives and compositions thereof as selective estrogen receptor degraders” (NOVARTIS AG, priority 2013, dated 2018)

Target: ERα (Homo sapiens (Human), UniProt P03372)
Assay: ERα degradation (MCF7 cells), in-cell Western
Assay type: cell-based
Conditions: for IC50: inflection point of the degradation in response to ligand concentration; for IC50 / % ERα remaining: MCF7 cells; for % ERα remaining: remaining ERα protein at 10 μM ligand, relative to DMSO control
Method: ERα Degradation (MCF7 Cells)
The column titled MCF7 IC50 reports the inflection point of the inhibition of transcription in MCF7 cells as described above. Percentage ERα remaining reports the remaining ERα protein measured at 10 μM concentration of the ligand as described above. The column ERα IC50 reports the inflection point of the degradation in response to the ligand concentration.

Sequence of ERα (P03372 whole entry): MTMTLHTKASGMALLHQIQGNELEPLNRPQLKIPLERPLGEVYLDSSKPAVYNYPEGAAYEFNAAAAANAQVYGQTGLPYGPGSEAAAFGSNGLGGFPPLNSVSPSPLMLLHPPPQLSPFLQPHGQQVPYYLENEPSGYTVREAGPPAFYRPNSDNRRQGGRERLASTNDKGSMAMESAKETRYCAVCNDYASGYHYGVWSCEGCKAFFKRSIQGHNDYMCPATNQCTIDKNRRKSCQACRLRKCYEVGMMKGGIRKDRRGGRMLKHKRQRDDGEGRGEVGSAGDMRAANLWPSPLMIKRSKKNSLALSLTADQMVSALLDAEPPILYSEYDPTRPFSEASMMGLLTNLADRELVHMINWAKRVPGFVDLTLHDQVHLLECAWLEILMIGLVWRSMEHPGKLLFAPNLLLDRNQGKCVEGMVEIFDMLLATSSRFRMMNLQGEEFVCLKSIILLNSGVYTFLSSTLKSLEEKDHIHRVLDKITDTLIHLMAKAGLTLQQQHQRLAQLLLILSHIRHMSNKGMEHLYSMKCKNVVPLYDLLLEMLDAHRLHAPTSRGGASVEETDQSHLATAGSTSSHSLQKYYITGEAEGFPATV

| SMILES | IC50 [nM] | % ERα remaining [%] | ER Percentage remaining (degradation potential, comparison of X position) [Percentage] |
| --- | --- | --- | --- |
| Cn1nnnc1/C=C/c1ccc(Oc2c(-c3ccc(O)cc3)sc3cc(O)ccc23)cc1 [Example 54, (E)-2-(4-hydroxyphenyl)-3-(4-(2-(1-methyl-1H-tetrazol-5-yl)vinyl)phenoxy)benzo[b]thiophen-6-ol] | 60 | 39 |  |
| Cc1cc(F)ccc1-c1sc2cc(O)ccc2c1Oc1ccc(/C=C/c2nnc(C)n2C)cc1 [Example 106, (E)-3-(4-(2-(4,5-dimethyl-4H-1,2,4-triazol-3-yl)vinyl)phenoxy)-2-(4-fluoro-2-methylphenyl)benzo[b] thiophen-6-ol] |  | 17 |  |
| CNC(=O)/C=C/c1ccc(Oc2c(-c3ccc(O)cc3)sc3cc(O)ccc23)cc1 [Example 66, (E)-3-(4-((6-hydroxy-2-(4-hydroxyphenyl)benzo[b]thiophen-3-yl)oxy)phenyl)-N-methylacrylamide] | 58 | 40 |  |
| CNC(=O)/C=C/c1ccc(Oc2c(-c3ccc(F)cc3)sc3cc(O)ccc23)cc1 [Example 67, (E)-3-(4-((2-(4-fluorophenyl)-6-hydroxybenzo[b]thiophen-3-yl)oxy)phenyl)-N-methylacrylamide] | 347 | 36 |  |
| O=C(O)/C=C/c1ccc(Oc2c(-c3ccccc3C(F)(F)F)sc3cc(O)ccc23)cc1 [Example 8, (E)-3-(4-((6-hydroxy-2-(2-(trifluoromethyl)-phenyl)benzo[b]thiophen-3-yl)oxy)phenyl)-acrylic acid] | 1 | 17 |  |
| C/C(=C\c1ccc(Oc2c(-c3ccc(O)cc3)sc3cc(O)ccc23)cc1)C(=O)O [Example 28, (E)-3-(4-((6-hydroxy-2-(4-hydroxyphenyl)-benzo[b]thiophen-3-yl)oxy)phenyl)-2-methylacrylic acid] |  | 33 |  |
| Cc1cc(/C=C/C(=O)O)ccc1Oc1c(-c2ccc(O)cc2)sc2cc(O)ccc12 [Example 57, (E)-3-(4-((6-hydroxy-2-(4-hydroxyphenyl)-benzo[b]thiophen-3-yl)oxy)-3-methylphenyl)acrylic acid] |  | 37 |  |
| O=C(O)/C=C/c1ccc(Oc2c(-c3ccc(O)cc3)sc3c(F)c(O)c(F)cc23)cc1 [Example 38, (E)-3-(4-((5,7-difluoro-6-hydroxy-2-(4-hydroxyphenyl)benzo[b]thiophen-3-yl)oxy)phenyl)acrylic acid] | 22 | 25 |  |
| O=C(O)/C=C/c1ccc(Oc2c(-c3ccc(O)cc3)sc3cc(O)ccc23)cn1 [Example 29, (E)-3-(5-((6-hydroxy-2-(4-hydroxyphenyl)benzo[b]thiophen-3-yl)oxy)pyridin-2-yl)acrylic acid] |  | 26 |  |
| CCc1ccccc1-c1sc2cc(O)ccc2c1Oc1ccc(/C=C/C(=O)O)cc1 [Example 18, (E)-3-(4-((2-(2-ethylphenyl)-6-hydroxybenzo[b]thiophen-3-yl)oxy)phenyl)-acrylic acid] | 1 | 23 |  |
| Cc1nnc(/C=C/c2ccc(Oc3c(-c4ccc(F)cc4C)sc4cc(O)ccc34)cc2)o1 [Example 46, (E)-2-(4-fluoro-2-methylphenyl)-3-(4-(2-(5-methyl-1,3,4-oxadiazol-2-yl)vinyl)phenoxy)benzo[b]thiophen-6-ol] | 5 | 41 |  |
| CN(c1ccc(/C=C/C(=O)O)cc1)c1c(-c2ccc(O)cc2)sc2cc(O)ccc12 [Example 30, (E)-3-(4-((6-hydroxy-2-(4-hydroxyphenyl)benzo[b]thiophen-3-yl)(methyl)amino)phenyl)acrylic acid] |  | 30 |  |
| O=C(O)/C=C/c1ccc(Oc2c(-c3ccc(O)cc3)sc3cc(O)ccc23)cc1 [drawing 5] |  |  | 41 |
